According to ChEMBL document CHEMBL5729619, “Substituted pyrazolo[3,4-b]pyrazines as SHP2 phosphatase inhibitors” (2023):

target: T1, Tyrosine-protein phosphatase non-receptor type 11 (Homo sapiens, UniProt Q06124); test: Inhibition Assay: SHP2 is allosterically activated through binding of bis-tyrosyl-phorphorylated peptides to its Src Homology 2 (SH2) domains. The latter activation step leads to the release of the auto-inhibitory interface of SHP2, which in turn renders the SHP2 protein tyrosine phosphatase (PTP) active and available for substrate recognition and reaction catalysis. The catalytic activity of SHP2 was monitored using the surrogate substrate DiFMUP in a prompt fluorescence assay format.The inhibition of SHP2 by compounds of the disclosure (concentrations varying from 0.003-100 μM) was monitored using an assay in which 0.25 nM of SHP2 was incubated with of 0.5 μM of peptide IRS1_pY1172(dPEG8)pY1222 (sequence: H2N-LN(pY)IDLDLV(dPEG8)LST(pY)ASINFQK-amide) After 30-60 minutes incubation at 25° C., the surrogate substrate DiFMUP (Invitrogen, cat #D6567, 100 μM final) was added to the reaction and the conversion of DiFMUP to 6,8-difluoro-7-hydroxyl-4-methyl coumarin (DiFMU) was monitored continuously for 10 minutes with excitation at 355 nm and emission at 460 nm using a microplate reader (PolarStar, BMG).
T1 sequence (Q06124 whole entry): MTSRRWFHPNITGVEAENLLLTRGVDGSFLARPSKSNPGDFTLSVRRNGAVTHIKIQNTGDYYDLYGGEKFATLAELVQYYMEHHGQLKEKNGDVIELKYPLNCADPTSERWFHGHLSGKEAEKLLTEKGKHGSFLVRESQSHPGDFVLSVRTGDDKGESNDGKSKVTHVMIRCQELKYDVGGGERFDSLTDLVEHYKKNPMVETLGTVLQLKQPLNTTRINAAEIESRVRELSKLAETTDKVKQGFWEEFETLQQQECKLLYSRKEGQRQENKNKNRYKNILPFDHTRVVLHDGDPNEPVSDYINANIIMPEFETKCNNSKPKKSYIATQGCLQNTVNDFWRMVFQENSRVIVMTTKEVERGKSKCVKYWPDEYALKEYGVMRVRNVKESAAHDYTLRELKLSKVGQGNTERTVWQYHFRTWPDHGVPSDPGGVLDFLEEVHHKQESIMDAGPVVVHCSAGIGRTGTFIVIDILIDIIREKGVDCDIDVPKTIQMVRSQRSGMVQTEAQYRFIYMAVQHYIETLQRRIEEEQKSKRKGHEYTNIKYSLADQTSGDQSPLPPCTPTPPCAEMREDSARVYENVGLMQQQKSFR

Compound | IC50 [nM]
C[C@@H]1CCN(c2n[nH]c3nc(N4CCC5(CC4)CO[C@@H](C)[C@H]5N)cnc23)c2ccc(C(=O)NCc3cccnc3)nc21 | < 1000
C[C@@H]1OCC2(CCN(c3cnc4c(N5CC(=O)N(C)c6cnccc65)n[nH]c4n3)CC2)[C@@H]1N | < 1000
C[C@@H]1OCC2(CCN(c3cnc4c(N5CCCc6nc(N7CCN(C)C(=O)C7)ccc65)n[nH]c4n3)CC2)[C@@H]1N | < 1000
C[C@@H]1OCC2(CCN(c3cnc4c(N5CCNc6cnccc65)n[nH]c4n3)CC2)[C@@H]1N | < 1000

Now from value to compound:

IC50 [nM] | Compound
< 1000 | CC1(CN)CCN(c2cnc3c(N4CCc5c(C6CC6)cccc54)n[nH]c3n2)CC1
< 1000 | C[C@@H]1OCC2(CCN(c3cnc4c(N5CCCc6c5cccc6S(=O)(=O)N(C)C)n[nH]c4n3)CC2)[C@@H]1N
